Where two headings read alike, the source gives them in different places.
Legend:
[1] = tested on: outer hair cells (OHCs) and inner hair cells (IHCs); assay: Cochlear explant model: hair cell protection against cisplatin; type: cell-based, Sprague-Dawley rats; settings: for EC100: Rattus norvegicus, read-out: Ex-vivo Efficacy Conc. for complete protection of hair cells (uM); for protection of hair cells against cisplatin: 1.5 hour pretreatment followed by co-treatment at different concentrations with 10 μM cisplatin
Excerpt: (§1) For hair cell and spiral ganglion assessment, postnatal Sprague-Dawley rats (P2-P4) of both sexes are anesthetized with isoflurane and decapitated. Temporal bones are removed and transferred to a cell culture dish with ice-cold Ca^2+/Mg^2+-containing phosphate-buffered saline (PBS; Invitrogen) or cold HBSS medium enriched with glucose. Under microscopic visualization, the cochlear capsules are carefully removed from the temporal bone using forceps and transferred to a new cell culture dish containing ice-cold PBS. The cochleae are then dissected from the cochlear capsule using fine forceps. The stria vascularis is removed from the cochlear tissue and discarded. Dissected cochlear epithelia are transferred to permeable membrane inserts (Millicell organotypic culture plate inserts, Millipore) which are placed into 1 mL of culture media (Dulbecco's modified Eagle's medium (high glucose, Glutamax, 25 mM HEPES) with 10% fetal bovine serum, 1% N2 supplement and 10 units/ml penicillin) in a 6-well plate. Up to 4 cochleae are placed onto each membrane. Explants are placed in a humidified chamber with 5% CO2 at 37° C. for a minimum of 18 hours prior to treatment. Cultures are then pre-treated with test compounds and returned to the incubator for a period of 10 minutes to 48 hours.
(§2) Following the incubation period, cochlear samples are fixed in 4% paraformaldehyde for a minimum of 30 minutes after treatment then permeabilized in 0.5% Triton in PBS (PBST) for 1 hour, followed by overnight incubation at 4° C. in primary antibodies in 10% goat or donkey serum (Sigma). Samples are then rinsed in PBST 2 times for 10 minutes each then incubated in alexa-488 conjugated secondary antibodies for 2 hours at room temperature or overnight at 4° C. in 10% goat or donkey serum (Sigma). Samples are then rinsed 2 times in PBS then incubated in DAPI (1:3000) in PBS for 5 minutes prior to mounting on slides. To evaluate the otoprotective efficacy of the compounds, cochlear samples are immunostained using combination of antibodies generated against markers specific for hair cells (Myosin V1, Myosin VIIA, Parvalbumin, etc.), SGNs (TUJ1, Neurofilament, etc.), f-actin, cell death, cell stress, etc. as well as a nuclear stain to identify cell nuclei.
(§3) Immunostained samples are mounted on glass slides and imaged with an LSM880 laser scanning confocal microscope (Zeiss) or an Operetta high-content imager (Perkin Elmer). The entire explant is imaged for all antibody and nuclear labeling in a 3-dimensional X-Y-Z plane in which the Z-plane consists of a stack imaged at intervals of 0.5-5 μm. The total length of the organ of Corti in each explant is then determined and is divided into 4 equal length regions. Basal, middle and apical hair cells or SGNS are counted at the regions approximately 25%, 50% or 75% of the total cochlear length from the base, respectively. Hair cell survival is determined by counting the number of inner and outer hair cells at these three different regions (base, middle and apex) in each cochlear explant and determining the number of missing/dead hair cells per cochlear region. Hair cell counts are obtained by placing a 200 μm length scale bar parallel to the rows of hair cells at each region and manually counting the total number of outer hair cells (OHCs) and inner hair cells (IHCs) within the 200 μm. Similarly, to evaluate the health and survival of SGNs, the density of SGN fibers or soma is also determined per region by manual counting for same region selected for counting hair cells. Nuclear staining is analyzed to confirm the presence or absence of cell nuclei and to evaluate nuclear health. Image analysis and quantification is performed using Zeiss Zen Blue software, or Perkin Elmer Columbus software.
(§4) Neonatal (P2-P4) Sprague-Dawley rats were used for the experiments described here. Animals were euthanized following anesthesia using isoflurane. Rat cochleae were then dissected in cold HBSS medium enriched with glucose. […]

[2] = Cisplatin binding, % bound
[3] = tested on: spiral ganglion neurons (SGNs); assay: Cochlear explant model: spiral ganglion neuron protection against cisplatin; type: cell-based, Sprague-Dawley rats; settings: 1.5 hour pretreatment followed by co-treatment at different concentrations with 10 μM cisplatin
Excerpt: as §1, §2, §3, §4

[4] = Cisplatin reaction kinetics by HPLC; settings: 50 μM cisplatin + 50 μM of compound (API) in PBS, pH 7.4, 37° C.
Procedure: Reaction kinetics between Cisplatin and the compound of interest (nucleophile) were monitored by high performance liquid chromatography. Isocratic separation was achieved using a Waters Spherisorb C8 column (4×250 mm, 5 μm, 80 Å). The flow rate was set to 1.00 mL/min. The mobile phase consisted of 5 mM Sodium Octanesulfonate+5 mM Tetrabutyl Ammonium Hydrogen Sulfate+20 mM Potassium Dihydrogen Phosphate adjusted to pH 5.9. Detection was performed at a wavelength of 210 nm.
Reactions were conducted at equimolar concentrations in buffered aqueous media and held at 37° C. Rate constants (k) were determined by monitoring the disappearance of Cisplatin as a function of time.

[5] = Pharmacokinetic study after intratympanic administration; type: in vivo, rats
Procedure: Female rats (Charles River) weighing 200-300 g of approximately 12-16 weeks of age served as subjects (N=4 per group). Prior to any procedures, animals were anesthetized using a combination of xylazine (10 mg/kg), ketamine (50 mg/kg), and acepromazine (1 mg/kg) for up to an hour via the intraperitoneal route. If needed, an intraoperative booster was administered intraperitoneal representing a one-tenth of the original dose.
Intratympanic injection—Each animal was positioned so that the head was tilted at an angle to favor injection towards the round window niche. […] Formulations were delivered using a perfusion pump at the rate of 2 μL/sec. Contact with the round window membrane was maintained for 30 minutes by placing the animal in a recumbent position. During the procedure and until recovery, animals were placed on a temperature controlled (40° C.) heating pad until consciousness was regained at which time they were returned to the vivarium.
Perilymph sampling procedure—The skin behind the ear of anesthetized rats was shaved and disinfected with povidone-iodine. An incision was then made behind the ear, and muscles were carefully retracted from over the bulla. A hole was drilled through the bulla using a dental burr so that the middle ear was exposed and accessed. The cochlea and the round window membrane were visualized under a stereo surgical microscope. The basal turn of bulla was cleaned by using small cotton ball. A unique microhole was hand drilled through the bony shell of the cochlea (cochlear capsule) adjacent to the round window. Perilymph (about 2 μL) was then collected using a microcapillary inserted into the cochlear scala tympani. Perilymph samples were added to a vial containing 18 μL of acetonitrile/water, stored at −80° C. until analysis.
Cochlear epithelium sampling procedure—Under a dissection scope, the bulla was opened, and the cochlea was exposed by removing all surrounding muscles, blood vessels and bone tissues. Holding the bulla, the cochlear wall bony structure was removed working from the base to the apex of the cochlea, exposing the organ of Corti. The exposed cochlear epithelium was gently dabbed with cotton swab to remove excess of liquid from tissue, carefully transferred to labelled tube. Each 2-mL plastic tube that contained acid washed 2.8 mm stainless steel beads was pre-weighed. The tubes were reweighed after adding cochlea epithelium and weights were recorded. All cochlea epithelium samples were placed in dry ice immediately after collection and stored at −80° C. prior to analysis.
Plasma sampling procedure—Blood samples were collected by cardiac puncture into labeled micro-tubes, containing lithium heparin as anticoagulant. Plasma were immediately harvested from the blood by centrifugation and collection for supernatants. All plasma samples were stored at −80° C. prior to analysis.
Samples were extracted by protein precipitation, then vortexed and centrifuged. The supernatant was collected and diluted with two folds of water. A high-performance liquid chromatography system (Agilent 1200 series) with Waters Cortecs C18 Plus column (50*4.6 mm, 2.7 μm) were used. The flow rate was set at 0.700 mL/min. A gradient method with an analytical run time of 5 minutes was used. Mobile phase A consisted of 0.01% ammonium formate, 0.03% formic acid in water. Mobile phase B consisted of 0.01% ammonium formate, 0.03% formic acid in acetonitrile: methanol (70:30, v/v). The gradient began with 30% B, stepped to 70% B at 2.75 minutes and held for 1 minute and then stepped back to 30% B to re-equilibrate the column.
Ionizations and detection of analyte and internal standard were performed on a triple quadruple mass spectrometer, API 5500 Q-Trap equipped with Turbo IonSpray@, from SCIEX (Toronto, Canada). Electro spray ionization (ESI) mass spectra was operated in the positive ion mode. Carbutamide was used as the internal standard (IS). […]

[6] = Rat cisplatin IP PK study, total platinum by ICP-MS; type: in vivo; settings: for Cmax: read-out: Cmax concentrations in perilymph and cochlear tissues
Procedure: Total platinum level in samples were analyzed by a qualified inductively coupled plasma mass spectrometric detection (ICP-MS) developed in QPS (Netherlands Lab). Ruthenium were used as internal standard. A flow injection analysis (FIA) method was used to using HPLC pump to introduce samples and internal standard into the systems but without HPLC column. The ICP-quadrupole-MS of Perkin Elmer Sciex Elan 6100 ICP-MS System equipped with a peristaltic pump, nebulizer, spray chamber, and quartz torch were used in platinum analyses.
Sample transport from the autosampler to the nebulizer was performed using a peristaltic pump. The instrument was cooled by using argon gas of 99.999% purity. Data were acquired and processed using the Analyst 1.6. The instrument settings of the ICP-MS had the following operating parameters: ICP radio frequency (RF) power, 1500 W; RF matching, 1.80 V; sampling depth, 8.0 mm; carrier gas, 0.90 L/min; makeup gas, 0.21 L/min; nebulizer pump, 0.10 rps; He gas, 4.5 mL/min; extract 1, 0.0 V; extract 2, −120.0 V; cell entrance, −30 V; cell exit, −30 V; QP bias, −16.0 V; Octp bias, −20.0 V.
The mass to charge ratio is determined by the detector. […] Electronic signals were compared to the standardized curve generated from ultra-high purity platinum samples and solvents. Accounting for dilutions, comparison of the sample signal to the standardized curve will allow for the determination of the original total platinum concentration.
Intraperitoneal injection—The lower right quadrant of the abdomen was shaved and disinfected with alcohol and then povidone iodine. Animals were placed in a supine position and the hind legs were lifted at a 40-degree angle in order to move the abdominal organs towards the diaphragm. A 1″ 23G needle or larger was inserted into the abdominal cavity, directed towards the animal's head, at a 15-20-degree angle and inserted approximately 5 mm. […] After removal of the syringe from the peritoneal cavity, triple antibiotic was placed on the injection site to help prevent infection. During the procedure and until recovery, animals were placed on a temperature controlled (40° C.) heating pad until consciousness was regained at which time they were returned to the vivarium.
Protocol: 3 animals per group at time points. Group A: 30 min, 1 hr, 2 hr, 6 hr, 1 day, 3 day, 7 day, 28 day. Group B: 30 min, 1 hr, 2 hr, 6 hr, 1 day, 3 day. Bioanalysis: Plasma, Perilymph, Cochlear epithelium, CSF. Bioanalytical Method: Total Platinum by ICP-MS.

[7] = intraperitoneal (IP) administration

Row | Cisplatin Binding % bound (in 30 min) at 1:10 ratio [2] [%] | SMILES | EC100 [1] [µM] | protection of hair cells against cisplatin [1] | protection of spiral ganglion neurons against cisplatin [3] | k [4] [M⁻¹ s⁻¹] | further results
1 | – | CSC[C@H]1O[C@@H](n2cnc3c(N)ncnc32)[C@H](O)[C@@H]1O [5-Deoxy-5-methylthioadenosine] | – | – | – | – | Ex-vivo Efficacy Conc. for complete protection of hair cells (uM) ([1]; ex vivo cochlear explants, cisplatin): No protection
2 | – | CC(=O)c1c[nH]c(=S)n(-c2ccc(C)cc2)c1=O [5-acetyl-3-(p-tolyl)-2-thiouracil] | 500 | – | – | – | potency on HC protection ([1]; ex-vivo cochlear explants, comparison of thiouracils): lower potency
3 | 60 | Sc1ncnc2nc[nH]c12 [6-mercaptopurine] | 50 to 100 | complete protection | near complete protection | – | –
4 | – | COc1cc(=O)[nH]c(=S)[nH]1 [6-methoxy-2-thiouracil] | 50 to 100 | – | – | – | –
5 | 50 | Nc1nc2c(ncn2[C@H]2C[C@H](O)[C@@H](CO)O2)c(=S)[nH]1 [6-thio-2′-deoxy guanosine] | 100 | complete protection | near complete protection | – | –
6 | 80 | Nc1nc2nc[nH]c2c(=S)[nH]1 [6-thioguanine] | 50 to 100 | complete protection | near complete protection | – | –
7 | – | Nc1nc2c(ncn2[C@@H]2O[C@H](CO)[C@@H](O)[C@H]2O)c(=S)[nH]1 [6-thioguanosine] | 50 to 100 | complete protection | near complete protection | – | –
8 | – | O=c1cc[nH]c(=S)[nH]1 [Compound 2-thiouracil, 2-thiouracil] | 50 to 100 | – | – | 0.15 | –
9 | 40 | CSCC[C@@H](N)C(=O)O [D-methionine, reference compound] | 10000 | – | – | 0.07 | In vivo PK in Cochlear Epithelium (24 h after dosing) [5]: ~200 ng/gm CE
10 | – | O=S(=O)(O)CCS [MESNA, reference compound] | – | – | – | 0.05 | –
11 | 95 | CCCc1cc(=O)[nH]c(=S)[nH]1 [OMY-141, 6-propyl-2-thiouracil] | 50 to 100 | complete protection | – | 10.27 | In vivo PK in Cochlear Epithelium (24 h after dosing) [5]: ~300 ng/gm CE; plasma exposure after IT injection ([5]; single IT injection): some plasma exposure; perilymph and cochlear epithelium exposure after IT injection ([5]; single IT injection, MCT and/or poloxamer formulation): good perilymph and cochlear epithelium exposure
12 | – | N.N.[Cl][Pt][Cl] [cisplatin] | – | – | – | – | Cmax concentrations in perilymph and cochlear tissues ([6]; dosed at 10 mg/kg IP): 700 to 750 ng/mL; Cmax ([6]; dosed at 10 mg/kg IP): 2300 to 2500 nM; Cmax concentrations in perilymph and cochlear tissues ([6]; dosed at 12 mg/kg IP): 700 to 900 ng/mL; Cmax ([6]; dosed at 12 mg/kg IP): 2300 to 3000 nM; time of peak cisplatin levels in cochlear tissues [6, 7]: 6 h; time of peak cisplatin levels in perilymph [6, 7]: ≤ 30 min
